ChEMBL document CHEMBL4184167, “Fluoroethoxy-1,4-diphenethylpiperidine and piperazine derivatives: Potent and selective inhibitors of [3H]dopamine uptake at the vesicular monoamine transporter-2” (Bioorg Med Chem Lett, 2017)

What was measured:
[1] = target: Sodium-dependent serotonin transporter (Rattus norvegicus, UniProt P31652); test: Inhibition of [3H]serotonin uptake at SERT in rat striatal synaptosomes preincubated for 5 mins followed by radioligand addition measured after 10 mins by scintillation spectrometry; format: subcellular, Striatum
[2] = target: Synaptic vesicular amine transporter (Rattus norvegicus, UniProt Q01827); test: Inhibition of [3H]dopamine uptake at VMAT2 in rat striatal synaptic vesicles by scintillation spectrometry
[3] = target: Voltage-gated inwardly rectifying potassium channel KCNH2 (Homo sapiens, UniProt Q12809); test: Displacement of [3H]Dofetilide from human ERG expressed in HEK293 cells after 60 mins by scintillation spectrometry
[4] = target: Sodium-dependent dopamine transporter (Rattus norvegicus, UniProt P23977); test: Inhibition of [3H]dopamine uptake at dopamine transporter in rat striatal synaptosomes preincubated for 5 mins followed by radioligand addition measured after 10 mins by scintillation spectrometry; format: subcellular, Striatum
[5] = Half life in Sprague-Dawley rat plasma; format: ADME, cell-free

Sequence of Sodium-dependent dopamine transporter (P23977 whole entry): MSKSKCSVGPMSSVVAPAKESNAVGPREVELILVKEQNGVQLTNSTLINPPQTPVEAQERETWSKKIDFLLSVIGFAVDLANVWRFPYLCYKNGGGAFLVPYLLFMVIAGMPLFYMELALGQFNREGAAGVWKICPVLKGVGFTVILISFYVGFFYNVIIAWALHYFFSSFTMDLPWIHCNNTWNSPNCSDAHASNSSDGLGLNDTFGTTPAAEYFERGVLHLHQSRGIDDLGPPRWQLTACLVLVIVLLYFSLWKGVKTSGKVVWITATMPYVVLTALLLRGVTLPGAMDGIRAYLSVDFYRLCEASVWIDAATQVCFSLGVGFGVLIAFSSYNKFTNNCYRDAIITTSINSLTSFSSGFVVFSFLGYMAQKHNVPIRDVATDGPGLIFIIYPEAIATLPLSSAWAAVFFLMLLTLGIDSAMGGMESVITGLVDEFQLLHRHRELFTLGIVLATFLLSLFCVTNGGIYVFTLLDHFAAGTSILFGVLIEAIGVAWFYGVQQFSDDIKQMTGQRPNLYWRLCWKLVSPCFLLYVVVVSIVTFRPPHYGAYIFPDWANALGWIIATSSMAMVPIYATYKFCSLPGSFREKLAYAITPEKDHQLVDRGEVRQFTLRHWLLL
Sequence of Synaptic vesicular amine transporter (Q01827 whole entry): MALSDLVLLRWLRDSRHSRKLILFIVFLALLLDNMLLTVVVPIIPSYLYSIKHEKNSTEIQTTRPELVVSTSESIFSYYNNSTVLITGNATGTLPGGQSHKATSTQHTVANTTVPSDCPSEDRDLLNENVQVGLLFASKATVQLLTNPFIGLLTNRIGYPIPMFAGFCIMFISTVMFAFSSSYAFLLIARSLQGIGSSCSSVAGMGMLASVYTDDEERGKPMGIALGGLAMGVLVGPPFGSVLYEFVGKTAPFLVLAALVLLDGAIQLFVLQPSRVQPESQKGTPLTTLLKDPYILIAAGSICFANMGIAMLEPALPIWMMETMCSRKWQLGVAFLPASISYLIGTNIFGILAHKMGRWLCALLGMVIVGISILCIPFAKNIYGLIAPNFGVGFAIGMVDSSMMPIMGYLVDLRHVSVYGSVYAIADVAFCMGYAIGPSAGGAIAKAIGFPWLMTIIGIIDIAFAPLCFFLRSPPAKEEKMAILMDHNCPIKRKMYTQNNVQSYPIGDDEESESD
Sequence of Voltage-gated inwardly rectifying potassium channel KCNH2 (Q12809 whole entry): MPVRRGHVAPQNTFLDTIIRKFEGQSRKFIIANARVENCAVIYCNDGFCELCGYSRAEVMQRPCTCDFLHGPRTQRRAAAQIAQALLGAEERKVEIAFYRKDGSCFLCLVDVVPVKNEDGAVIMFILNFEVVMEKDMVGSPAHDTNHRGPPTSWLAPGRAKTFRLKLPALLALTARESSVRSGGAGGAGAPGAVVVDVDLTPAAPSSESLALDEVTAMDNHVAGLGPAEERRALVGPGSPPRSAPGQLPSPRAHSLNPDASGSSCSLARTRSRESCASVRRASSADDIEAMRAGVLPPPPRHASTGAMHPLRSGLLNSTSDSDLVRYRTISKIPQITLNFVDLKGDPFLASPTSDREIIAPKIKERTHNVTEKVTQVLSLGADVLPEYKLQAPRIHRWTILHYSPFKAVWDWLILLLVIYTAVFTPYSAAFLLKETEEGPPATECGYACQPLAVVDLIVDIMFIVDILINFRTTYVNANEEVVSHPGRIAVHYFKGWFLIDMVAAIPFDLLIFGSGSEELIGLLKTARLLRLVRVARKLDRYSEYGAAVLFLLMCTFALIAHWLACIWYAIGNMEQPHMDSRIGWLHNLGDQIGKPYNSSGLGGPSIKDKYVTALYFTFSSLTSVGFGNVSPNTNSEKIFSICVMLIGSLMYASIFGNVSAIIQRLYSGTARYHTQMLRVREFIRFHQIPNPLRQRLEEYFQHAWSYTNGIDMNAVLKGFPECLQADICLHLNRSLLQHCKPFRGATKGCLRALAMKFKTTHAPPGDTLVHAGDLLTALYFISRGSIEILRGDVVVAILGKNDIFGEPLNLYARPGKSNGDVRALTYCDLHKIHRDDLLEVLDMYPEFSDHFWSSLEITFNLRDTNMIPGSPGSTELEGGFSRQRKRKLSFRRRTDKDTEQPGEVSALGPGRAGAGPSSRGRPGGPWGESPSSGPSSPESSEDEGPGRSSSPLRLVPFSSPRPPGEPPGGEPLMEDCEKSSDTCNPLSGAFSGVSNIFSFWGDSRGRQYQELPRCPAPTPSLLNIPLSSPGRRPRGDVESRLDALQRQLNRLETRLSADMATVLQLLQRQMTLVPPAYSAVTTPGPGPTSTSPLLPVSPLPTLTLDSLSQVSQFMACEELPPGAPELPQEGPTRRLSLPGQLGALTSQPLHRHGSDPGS
Sequence of Sodium-dependent serotonin transporter (P31652 whole entry): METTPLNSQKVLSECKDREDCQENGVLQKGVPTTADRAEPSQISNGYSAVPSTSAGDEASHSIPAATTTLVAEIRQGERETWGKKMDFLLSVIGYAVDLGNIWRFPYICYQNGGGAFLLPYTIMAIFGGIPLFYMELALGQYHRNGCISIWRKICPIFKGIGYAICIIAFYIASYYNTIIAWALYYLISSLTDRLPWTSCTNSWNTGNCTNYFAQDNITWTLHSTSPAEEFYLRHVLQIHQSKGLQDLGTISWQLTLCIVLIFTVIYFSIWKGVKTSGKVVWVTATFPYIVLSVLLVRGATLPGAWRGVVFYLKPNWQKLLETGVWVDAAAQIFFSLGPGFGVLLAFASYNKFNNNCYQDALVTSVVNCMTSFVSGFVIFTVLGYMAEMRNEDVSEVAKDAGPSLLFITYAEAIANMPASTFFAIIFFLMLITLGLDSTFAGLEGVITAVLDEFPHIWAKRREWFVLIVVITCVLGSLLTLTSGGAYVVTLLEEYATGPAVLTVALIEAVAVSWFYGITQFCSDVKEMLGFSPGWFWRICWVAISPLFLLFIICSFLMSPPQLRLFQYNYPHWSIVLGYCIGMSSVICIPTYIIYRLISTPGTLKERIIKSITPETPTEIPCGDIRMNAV

SMILES | Ki [1] | Ki [2] | IC50 [3] | Ki [4] | half-life [5]
FCCOc1ccc(CCC2CCN(CCc3ccccc3Cl)CC2)cc1 | 3620 nM | 190 nM |  |  | 
FCCOc1ccc(CCN2CCN(CCc3ccccc3Cl)CC2)cc1 | 480 nM | 450 nM | 1400 nM |  | 
FCCOc1cccc(CCN2CCN(CCc3ccccc3)CC2)c1 |  | 73 nM |  |  | 
FCCOc1ccccc1CCN1CCN(CCc2ccccc2Cl)CC1 | 72 nM | 14 nM | 850 nM |  | 
FCCOc1ccc(CCN2CCN(CCc3ccccc3)CC2)cc1 | 3370 nM | 600 nM | 3050 nM | 2740 nM | 
COc1ccc(CCN2CCC(CCc3ccccc3OCCF)CC2)cc1 |  | 73 nM | 350 nM |  | 
FCCOc1ccccc1CCN1CCN(CCc2ccc(F)cc2)CC1 | 300 nM | 24 nM |  |  | 
FCCOc1ccccc1CCC1CCN(CCc2ccccc2)CC1 |  | 35 nM |  |  | 
COc1ccc(CCN2CCC(CCc3cccc(OCCF)c3)CC2)cc1 | 660 nM | 67 nM | 280 nM |  | 
COc1ccccc1CCN1CCC(CCc2ccccc2OCCF)CC1 |  | 25 nM |  |  | 
FCCOc1cccc(CCC2CCN(CCc3ccccc3)CC2)c1 |  | 53 nM |  | 3140 nM | 
FCCOc1ccccc1CCC1CCN(CCc2ccc(F)cc2)CC1 |  | 27 nM |  |  | 
FCCOc1cccc(CCN2CCC(CCc3ccccc3)CC2)c1 |  | 24 nM |  |  | 
CN1[C@@H](CC(=O)c2ccccc2)CCC[C@H]1C[C@H](O)c1ccccc1 [LOBELINE] |  |  |  |  | 50 min
FCCOc1ccc(CCN2CCC(CCc3ccccc3)CC2)cc1 | 390 nM | 150 nM | 350 nM | 1060 nM | 
COc1ccccc1CCN1CCC(CCc2cccc(OCCF)c2)CC1 | 470 nM | 61 nM | 800 nM |  | 
